Series [1] addresses T1, human S1P receptors (S1P1) (Homo sapiens, UniProt P21453).
T1 construct: expressed in transfected cells
Kind of series: S1P receptor profiling, GTP[γ-35S] binding SPA, S1P1. Type of series: biochemical. More on the design: key to S1P1 mode of action (Agon = agonist): Agon = agonist. The settings on record: for EC50: GTP[γ-35S] binding, membranes of transfected CHO or RH7777 cells. The method, then:
(§1) The compounds of formula I have binding affinity to individual human S1P receptors as determined in following assays:
(§2) Sphingosine-1-Phosphate (S1P) Receptor Profiling
(§3) Agonist activities of compounds are tested on the human S1P receptors (S1P1), (S1P3), (S1P2), (S1P4) and (S1P5). […] The assay technology used is SPA (scintillation proximity based assay). Briefly, DMSO dissolved compounds are serially diluted and added to SPA-bead (Amersham-Pharmacia) immobilised S1P receptor expressing membrane protein (10-20 μg/well) in the presence of 50 mM Hepes, 100 mM NaCl, 10 mM MgCl2, 10 μM GDP, 0.1% fat free BSA and 0.2 nM GTP [γ-^35S] (1200 Ci/mmol). After incubation in 96 well microtiterplates at RT for 120 min, unbound GTP [γ-^35S] is separated by a centrifugation step. Luminescence of SPA beads triggered by membrane bound GTP [γ-^35S] is quantified with a TOPcount plate reader (Packard). EC50s are calculated using standard curve fitting software.
In general terms: GTPγS resists hydrolysis and so accumulates on activated G proteins.

For series [2], the target named is T2, human S1P receptors (S1P2) (Homo sapiens, UniProt O95136).
T2 construct: expressed in transfected cells
T2 sequence (O95136 whole entry): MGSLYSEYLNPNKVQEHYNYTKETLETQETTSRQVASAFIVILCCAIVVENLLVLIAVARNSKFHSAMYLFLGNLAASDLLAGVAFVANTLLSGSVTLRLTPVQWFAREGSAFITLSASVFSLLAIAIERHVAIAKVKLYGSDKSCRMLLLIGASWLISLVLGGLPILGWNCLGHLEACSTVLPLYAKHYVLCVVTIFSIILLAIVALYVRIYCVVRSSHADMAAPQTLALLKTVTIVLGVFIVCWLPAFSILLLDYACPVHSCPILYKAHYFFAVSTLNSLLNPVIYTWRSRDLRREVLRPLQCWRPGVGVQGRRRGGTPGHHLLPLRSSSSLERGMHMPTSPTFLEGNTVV
Kind of series: S1P receptor profiling, GTP[γ-35S] binding SPA, S1P2. Type of series: biochemical. The conditions noted are these: membranes of transfected CHO or RH7777 cells. The method, then: as §1, §2, §3

The target in series [3] is T3, human S1P receptors (S1P3) (Homo sapiens, UniProt Q99500).
T3 construct: expressed in transfected cells
T3 sequence (Q99500 whole entry): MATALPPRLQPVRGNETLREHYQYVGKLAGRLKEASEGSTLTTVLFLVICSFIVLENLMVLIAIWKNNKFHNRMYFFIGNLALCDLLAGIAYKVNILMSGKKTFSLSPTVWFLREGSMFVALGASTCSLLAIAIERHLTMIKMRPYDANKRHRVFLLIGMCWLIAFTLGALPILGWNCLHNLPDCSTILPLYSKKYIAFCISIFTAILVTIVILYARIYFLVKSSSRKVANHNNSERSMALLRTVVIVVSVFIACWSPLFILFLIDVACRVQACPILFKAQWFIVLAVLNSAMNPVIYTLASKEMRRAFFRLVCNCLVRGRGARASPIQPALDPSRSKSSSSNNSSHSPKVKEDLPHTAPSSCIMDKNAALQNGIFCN
Kind of series: S1P receptor profiling, GTP[γ-35S] binding SPA, S1P3. Type of series: biochemical. Also on record: key to S1P3 mode of action (Agon = agonist): Agon = agonist. The settings on record: for EC50: GTP[γ-35S] binding, membranes of transfected CHO or RH7777 cells. The method, then: as §1, §2, §3

The target of series [4] is T4, human S1P receptors (S1P4) (Homo sapiens, UniProt O95977).
T4 construct: expressed in transfected cells
T4 sequence (O95977 1-384): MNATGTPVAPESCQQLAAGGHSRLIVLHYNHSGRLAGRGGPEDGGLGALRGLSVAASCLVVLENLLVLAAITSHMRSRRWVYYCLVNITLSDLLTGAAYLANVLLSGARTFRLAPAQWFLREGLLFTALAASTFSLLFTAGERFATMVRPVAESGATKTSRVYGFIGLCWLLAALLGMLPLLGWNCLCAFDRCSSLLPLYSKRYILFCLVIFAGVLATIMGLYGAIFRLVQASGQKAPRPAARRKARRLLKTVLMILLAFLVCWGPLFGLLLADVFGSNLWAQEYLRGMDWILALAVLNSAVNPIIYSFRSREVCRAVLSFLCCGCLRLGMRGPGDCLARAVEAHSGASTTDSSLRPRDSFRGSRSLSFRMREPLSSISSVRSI
Kind of series: S1P receptor profiling, GTP[γ-35S] binding SPA, S1P4. Type of series: biochemical. Also on record: key to S1P4 mode of action (Agon = agonist): Agon = agonist. The conditions noted are these: for EC50: GTP[γ-35S] binding, membranes of transfected CHO or RH7777 cells; for S1P4 mode of action (Agon = agonist): column beside S1P4 EC50. The method, then: as §1, §2, §3

For series [5], the target named is T5, human S1P receptors (S1P5) (Homo sapiens, UniProt Q9H228).
T5 construct: expressed in transfected cells
T5 sequence (Q9H228 whole entry): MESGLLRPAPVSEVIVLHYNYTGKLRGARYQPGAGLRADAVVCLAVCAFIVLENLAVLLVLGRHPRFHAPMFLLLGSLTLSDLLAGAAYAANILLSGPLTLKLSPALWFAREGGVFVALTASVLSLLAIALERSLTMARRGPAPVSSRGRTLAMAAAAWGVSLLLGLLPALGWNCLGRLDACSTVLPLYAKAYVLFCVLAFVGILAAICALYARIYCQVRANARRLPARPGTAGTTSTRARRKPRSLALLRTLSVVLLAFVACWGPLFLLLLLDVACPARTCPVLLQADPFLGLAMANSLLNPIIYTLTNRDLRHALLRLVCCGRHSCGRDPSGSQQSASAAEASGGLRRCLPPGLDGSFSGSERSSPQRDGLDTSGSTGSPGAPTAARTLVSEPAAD
Kind of series: S1P receptor profiling, GTP[γ-35S] binding SPA, S1P5. Type of series: biochemical. The settings on record: for EC50: GTP[γ-35S] binding, membranes of transfected CHO or RH7777 cells; for S1P5 mode of action (Agon = agonist): column beside S1P5 EC50. More on the design: key to S1P5 mode of action (Agon = agonist): Agon = agonist. The method, then: as §1, §2, §3

The test system of series [6] is peripheral blood lymphocytes. Kind of series: In vivo: blood lymphocyte depletion. The settings on record: rats, p.o. The method, then:
B. In Vivo: Blood Lymphocyte Depletion
A compound of formula I or the vehicle is administered orally by gavage to rats. Tall blood for hematological monitoring is obtained on day −1 to give the baseline individual values, and at 2, 6, 24, 48 and 72 hours after application. In this assay, the compounds of formula I deplete peripheral blood lymphocytes when administered at a dose of 0.03 to 3 mg/kg.

Counter-ions that a name gives are not always drawn.

T1 sequence (P21453 whole entry): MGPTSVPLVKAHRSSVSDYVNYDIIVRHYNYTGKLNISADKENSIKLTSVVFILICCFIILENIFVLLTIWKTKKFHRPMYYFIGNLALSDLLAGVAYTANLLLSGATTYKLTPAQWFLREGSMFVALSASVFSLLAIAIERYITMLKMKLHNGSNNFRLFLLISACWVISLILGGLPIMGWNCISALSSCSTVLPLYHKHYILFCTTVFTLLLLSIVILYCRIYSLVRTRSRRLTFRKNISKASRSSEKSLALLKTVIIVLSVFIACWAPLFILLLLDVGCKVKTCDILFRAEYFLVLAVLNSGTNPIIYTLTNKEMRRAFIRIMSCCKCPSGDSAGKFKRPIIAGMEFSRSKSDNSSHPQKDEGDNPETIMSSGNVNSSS

What is called melting point is the temperature, or range, at which the solid turns liquid. Molecule `C[C@](N)(CO)CCc1ccc(OCCCC(F)(F)C(F)(F)F)cc1` (as salt: hydrochloride) [Example 1, (R)-2-Amino-2-methyl-4-[4-(4,4,5,5,5-pentafluoro-pentyloxy)-phenyl]-butan-1-ol Hydrochloride] yielded a melting point of 186 to 189 °C.
A word on the EC50: it is the concentration giving half of the maximal effect. On to `C[C@@](N)(CCc1ccc(OCCCC(F)(F)C(F)(F)F)cc1)COP(=O)(O)O` [Example 34, Mono-(R)-2-Amino-2-methyl-4-[4-(4,4,5,5,5-pentafluoro-pentyloxy)-phenyl]-but-2-yl phosphate], for which the melting point lay in the range of 229 to 231 °C. In series [1], the “S1P1 mode of action (Agon = agonist)” value was “Agon” and the concentration giving a half-maximal response (EC50) was 16.1 nM. The EC50 in series [2] is more than 10000 nM. Moreover, the EC50 in series [3] was more than 10000 nM. In series [4], a half-maximal effect (EC50) was put at 15.3 nM and the “S1P4 mode of action (Agon = agonist)” value is listed as “Agon”. In series [5], the EC50 was 0.9 nM and the “S1P5 mode of action (Agon = agonist)” value is given as “Agon”.
In the case of `COc1ccc(CCOc2ccc(CCC(N)(CO)COP(=O)(O)O)cc2)cc1F` (stereo not drawn) [Example 94], the “S1P1 mode of action (Agon = agonist)” value in series [1] was “Agon”. Moreover, the EC50 is 12.2 nM in series [1], more than 10000 nM in series [2], more than 10000 nM in series [3] and 4.9 nM in series [5]. Moreover, the “S1P5 mode of action (Agon = agonist)” value in series [5] is listed as “Agon”.
As for `C[C@@](N)(CCc1ccc(C(=O)CCc2ccc(-c3ccccc3)cc2)cc1)COP(=O)(O)O` [Example 50], the “S1P1 mode of action (Agon = agonist)” value in series [1] is “Agon”. The EC50 is 0.3 nM in series [1]; more than 10000 nM in series [2]; 196 nM in series [3]; more than 10000 nM in series [4]; 1.5 nM in series [5]. Moreover, the “S1P3 mode of action (Agon = agonist)” value in series [3] (column beside S1P3 EC50) is on record as “Agon”. The “S1P5 mode of action (Agon = agonist)” value in series [5] is “Agon”.
In the case of `CC(N)(CCc1ccc(OCCc2ccc3ccccc3c2)cc1)COP(=O)(O)O` (stereo not drawn) [Example 42], the “S1P1 mode of action (Agon = agonist)” value in series [1] is recorded as “Agon”. Moreover, the EC50 in series [1] is 4.1 nM; in series [2] it was more than 10000 nM; in series [3] it was more than 10000 nM; in series [4], 1.8 nM; in series [5], 21.7 nM. Besides, the “S1P4 mode of action (Agon = agonist)” value in series [4] is “Agon”. Moreover, the “S1P5 mode of action (Agon = agonist)” value in series [5] is “Agon”.
Take `C[C@](N)(CO)CCc1ccc(OCCCC(F)(F)C(F)(F)F)cc1` [Example 1, (R)-2-Amino-2-methyl-4-[4-(4,4,5,5,5-pentafluoro-pentyloxy)-phenyl]-butan-1-ol Hydrochloride]: the figures for the “dose giving depletion of peripheral blood lymphocytes by more than 50%” value in series [6] (after 6 h) and in series [6] (after 24 h) were 0.2 mg/kg and 0.1 mg/kg, respectively.
`C[C@](N)(CO)CCc1ccc(OCCCCCF)cc1` (as salt: hydrochloride) [Example 2, (R)-2-Amino-2-methyl-4-[4-(5-fluoro-pentyloxy)-phenyl]-butan-1-ol Hydrochloride] showed a melting point of 143 to 146 °C.
Regarding `C[C@@](N)(CCc1ccc(OCCCCCF)cc1)COP(=O)(O)O` [Example 35, Mono-(R)-2-Amino-2-methyl-4-[4-(5-fluoro-pentyloxy)-phenyl]-but-2-yl phosphate], the melting point is 237 to 241 °C.

The values are drawn from patent US7612238B2, “Amino-propanol derivatives” (Novartis AG, priority 2002, dated 2009).
